# Results reported in the RepoRT retention time repository (doi:10.1016/j.jchromb.2020.122105).
# Experiments:
# Conditions in all cases: stereoisomer not certain
# [1] = RP, Waters ACQUITY UPLC BEH C18, 100 × 2.1 mm, 1.7 µm, 0.1 mL/min, estimated dead time 2.2 min; A: water + 0.1% formic acid, pH 3; B: methanol + 0.1% formic acid, pH 3; gradient (min/%B) 0/5 5/5 25/100 30/100 30.1/5 35/5
# [2] = RP, Waters CORTECS T3, 100 × 2.1 mm, 2.7 µm, 0.2 mL/min, estimated dead time 1.1 min; A: water + 0.045% formic acid + 0.11% ammonium hydroxide, pH 7; B: methanol; gradient (min/%B) 0/5 5/5 25/95 25.1/100 35/100 35.1/5 45/5
# [3] = RP, Waters ACQUITY UPLC BEH C18, 100 × 2.1 mm, 1.7 µm, 0.1 mL/min, estimated dead time 2.2 min; A: water + 0.045% formic acid + 0.11% ammonium hydroxide, pH 7; B: methanol; gradient (min/%B) 0/5 5/5 25/95 25.1/100 35/100 35.1/5 45/5
# [4] = RP, Thermo Scientific Hypercarb, 150 × 2.1 mm, 5 µm, 0.1 mL/min, estimated dead time 3.3 min; A: water + 0.1% formic acid, pH 3; B: methanol + 0.1% formic acid, pH 3; gradient (min/%B) 0/5 5/5 20/100 35/100 35.1/5 45/5
# [5] = RP, Waters ACQUITY UPLC BEH C18, 100 × 2.1 mm, 1.7 µm, 0.2 mL/min, estimated dead time 1.1 min; A: water + 0.025% formic acid + 20 mM ammonium acetate + 0.055% ammonium hydroxide, pH 7; B: methanol; gradient (min/%B) 0/5 5/5 25/100 30/100 30.1/5 35/5
# [6] = HILIC, Merck SeQuant ZIC-HILIC, 150 × 2.1 mm, 5 µm, 0.75 mL/min, estimated dead time 0.44 min; A: water + 0.1% acetic acid + 10 mM ammonium acetate, pH 4; B: 5% water + 95% acetonitrile + 0.1% acetic acid + 10 mM ammonium acetate, pH 4; gradient (min/%B) 0/95 5/95 20/57 25/57 30/95 40/95
# [7] = RP, Waters CORTECS T3, 100 × 2.1 mm, 2.7 µm, 0.3 mL/min, estimated dead time 0.73 min; A: water + 0.1% formic acid, pH 3; B: methanol + 0.1% formic acid, pH 3; gradient (min/%B) 0/0 1/0 6/5 30/100 35/100 35.1/0 40/0
# [8] = RP, Waters CORTECS T3, 100 × 2.1 mm, 2.7 µm, 0.15 mL/min, estimated dead time 1.5 min; A: water + 0.1% formic acid, pH 3; B: methanol + 0.1% formic acid, pH 3; gradient (min/%B) 0/0 1/0 6/5 30/100 35/100 35.1/0 40/0
# [9] = RP, Waters CORTECS T3, 100 × 2.1 mm, 2.7 µm, 0.3 mL/min, estimated dead time 0.73 min; A: water + 0.1% formic acid, pH 3; B: methanol + 0.1% formic acid, pH 3; gradient (min/%B) 0/0 5/0 25/100 30/100 30.1/0 35/0
# [10] = RP, Waters CORTECS T3, 100 × 2.1 mm, 2.7 µm, 0.25 mL/min, estimated dead time 0.88 min; A: water + 0.1% formic acid, pH 3; B: methanol + 0.1% formic acid, pH 3; gradient (min/%B) 0/0 1/0 6/5 30/100 35/100 35.1/0 40/0
# [11] = RP, Waters CORTECS T3, 100 × 2.1 mm, 2.7 µm, 0.3 mL/min, estimated dead time 0.73 min; A: water + 0.1% formic acid, pH 3; B: methanol + 0.1% formic acid, pH 3; gradient (min/%B) 0/5 5/5 25/100 30/100 30.1/5 35/5
# [12] = RP, Waters CORTECS T3, 100 × 2.1 mm, 2.7 µm, 0.2 mL/min, estimated dead time 1.1 min; A: water + 0.1% formic acid, pH 3; B: methanol + 0.1% formic acid, pH 3; gradient (min/%B) 0/5 5/5 25/95 25.1/100 35/100 35.1/5 45/5
# [13] = RP, Waters CORTECS T3, 100 × 2.1 mm, 2.7 µm, 0.2 mL/min, estimated dead time 1.1 min; A: water + 0.1% formic acid, pH 3; B: methanol + 0.1% formic acid, pH 3; gradient (min/%B) 0/0 1/0 6/5 30/100 35/100 35.1/0 40/0
# [14] = RP, Waters CORTECS T3, 100 × 2.1 mm, 2.7 µm, 0.3 mL/min, estimated dead time 0.73 min; A: water + 0.1% formic acid, pH 3; B: methanol + 0.1% formic acid, pH 3; gradient (min/%B) 0/5 5/5 25/95 25.1/100 35/100 35.1/5 45/5
Compound,LC retention time [3] [min],LC retention time [4] [min],LC retention time [5] [min],also measured
CCCCCCCCCCCCCC(=O)OCC(O)CO (racemic) [RAC-GLYCEROL 1-MYRISTATE],29.1,,,LC retention time [1]: 28.2 min; LC retention time [2]: 25.4 min
NC1(C(=O)O)CC1 [1-AMINOCYCLOPROPANE-1-CARBOXYLATE],,4.48,,
O=C(O)CCCC(=O)C(=O)O [2-OXOADIPATE],,,,LC retention time [6]: 12.9 min
"OCC(O)c1ccc(O)c(O)c1 (centres undefined) [3,4-DIHYDROXYPHENYL GLYCOL]",,,,LC retention time [6]: 4.12 min
Nc1c(O)cccc1C(=O)CC(N)C(=O)O (centres undefined) [3-HYDROXYKYNURENINE],,,,LC retention time [1]: 2.83 min
COc1cc(CCN)ccc1O [3-METHOXYTYRAMINE],9.22,20.5,,LC retention time [2]: 4.87 min
Cn1cncc1CCN [3-METHYLHISTAMINE],3.44,4.64,1.81,LC retention time [2]: 1.73 min
"O=C1CCNC(=O)N1 [5,6-DIHYDROURACIL]",,,,LC retention time [1]: 2.76 min
N[C@@H](Cc1c[nH]c2ccc(O)cc12)C(=O)O [5-HYDROXY-L-TRYPTOPHAN],,,,LC retention time [11]: 2.7 min
NCCCNCCCN [BIS(3-AMINOPROPYL)AMINE],,41,,
CN(CC(=O)O)C(=N)N [CREATINE],,,1.35,
O=C(O)C(O)c1ccc(O)c(O)c1 (centres undefined) [DIHYDROXYMANDELIC ACID],,,,LC retention time [6]: 4.4 min
NC(N)=NCC(=O)O [GUANIDINOACETATE],,5.04,,
O=C(O)CNC(=O)c1ccccc1 [HIPPURATE],,,,LC retention time [1]: 14.1 min
NC(CCS)C(=O)O (centres undefined) [HOMOCYSTEINE],,14,,
NC(N)=NCCC[C@H](N)C(=O)O [L-ARGININE],,4.77,,
CS(=N)(=O)CCC(N)C(=O)O [L-METHIONINE SULFOXIMINE],,4.77,,
CN=C(N)N [METHYLGUANIDINE],,4.05,1.39,LC retention time [10]: 1.06 min
CC(=O)NC1C(O)CC(O)(C(=O)O)OC1C(O)C(O)CO (centres undefined) [N-ACETYLNEURAMINATE],,,,LC retention time [6]: 12.9 min
CCCCCCCCCCCCCCCC(=O)O [PALMITATE],36.8,,,LC retention time [12]: 33.8 min
CCCCCCC=CCCCCCCCC(=O)O [PALMITOLEIC ACID],29.4,,,
NCCc1ccccc1 [PHENETHYLAMINE],20.4,,,
c1ccc2ncccc2c1 [QUINOLINE],16.1,4.84,,LC retention time [2]: 11.7 min
N[C@@H](CSCC(=O)O)C(=O)O [S-CARBOXYMETHYL-L-CYSTEINE],,14.8,,
C[Se]CCC(N)C(=O)O (centres undefined) [SELENOMETHIONINE],,,,LC retention time [1]: 4.52 min
NCCCCNCCCN [SPERMIDINE],,41,,
Cc1ncc(C[n+]2csc(CCO)c2C)c(N)n1 [THIAMINE],,19.1,3.78,LC retention time [8]: 1.78 min; LC retention time [9]: 0.89 min
C=C1CCC(O)CC1=CC=C1CCCC2(C)C1CCC2C(C)C=CC(C)C(C)C (centres undefined) [VITAMIN D2],33.6,,,
O=c1[nH]c(=O)c2ncn(C3OC(CO)C(O)C3O)c2[nH]1 (centres undefined) [XANTHOSINE],,,,LC retention time [12]: 11.9 min; LC retention time [6]: 11.6 min

# The next lines start with results.
LC retention time [3] [min],LC retention time [4] [min],LC retention time [5] [min],Compound,also measured
,4.94,1.35,C[n+]1cccc(C(N)=O)c1 [1-METHYLNICOTINAMIDE],
,13,1.39,NC(N)=NCCCC(=O)O [4-GUANIDINOBUTANOATE],LC retention time [7]: 0.9 min; LC retention time [1]: 2.71 min; LC retention time [8]: 1.8 min; LC retention time [9]: 0.91 min; LC retention time [10]: 1.06 min
3.67,,1.44,NCCCCN=C(N)N [AGMATINE],LC retention time [2]: 1.58 min
,,1.35,C[N+](C)(C)CCO [CHOLINE],
37.8,,,COC1=C(OC)C(=O)C(CC=C(C)CCC=C(C)CCC=C(C)CCC=C(C)CCC=C(C)CCC=C(C)CCC=C(C)CCC=C(C)CCC=C(C)CCC=C(C)C)=C(C)C1=O [COENZYME Q10],
,4.94,1.39,CN1CC(=O)NC1=N [CREATININE],LC retention time [10]: 1.06 min
,13.9,1.44,Nc1ccnc(=O)[nH]1 [CYTOSINE],LC retention time [7]: 0.9 min; LC retention time [10]: 1.06 min
,,1.35,OCCNCCO [DIETHANOLAMINE],
3.13,4.61,1.44,NCCc1cnc[nH]1 [HISTAMINE],LC retention time [2]: 1.54 min
,4.86,,N[C@@H](CCSC[C@H](N)C(=O)O)C(=O)O [L-CYSTATHIONINE],
,4.99,,N[C@@H](CSSC[C@H](N)C(=O)O)C(=O)O [L-CYSTINE],
10.2,24.8,,N[C@@H](Cc1ccc(O)cc1)C(=O)O [L-TYROSINE],LC retention time [2]: 5.83 min
,,26.4,CC(C)=CCCC(C)C1CCC2(C)C3=C(CCC12C)C1(C)CCC(O)C(C)(C)C1CC3 (centres undefined) [LANOSTEROL],
20,,,NC(=O)CCCCC1CCSS1 (centres undefined) [LIPOAMIDE],LC retention time [2]: 16 min
,4.49,,"NC(CCCC(N)C(=O)O)C(=O)O (centres undefined) [LL-2,6-DIAMINOHEPTANEDIOATE]",LC retention time [12]: 2.41 min
34.6,,,CC(C)=CCCC(C)=CCCC(C)=CCCC(C)=CCC1=C(C)C(=O)c2ccccc2C1=O [MENAQUINONE],
,4.77,1.88,Cn1cncc1CC(N)C(=O)O [N(PAI)-METHYL-L-HISTIDINE],
,,1.39,CC(=O)NCCCCN [N-ACETYLPUTRESCINE],LC retention time [1]: 2.71 min; LC retention time [8]: 1.8 min
,26.7,,NC(=O)c1ccc[n+](C2OC(COP(=O)([O-])O)C(O)C2O)c1 (centres undefined) [NICOTINAMIDE MONONUCLEOTIDE],LC retention time [1]: 2.69 min
,16.2,,N[C@@H](CCOC(=O)CCC(=O)O)C(=O)O [O-SUCCINYL-L-HOMOSERINE],LC retention time [13]: 1.34 min; LC retention time [7]: 0.92 min; LC retention time [1]: 2.74 min; LC retention time [8]: 1.83 min; LC retention time [9]: 0.93 min; LC retention time [10]: 1.09 min; LC retention time [14]: 0.9 min
37.5,,,CCCCCCCCC=CCCCCCCCC(=O)NC(COP(=O)([O-])OCC[N+](C)(C)C)C(O)C=CCCCCCCCCCCCCC (centres undefined) [SPHINGOMYELIN (d36:2)],LC retention time [2]: 28.7 min
3.87,18,1.42,Cc1ncc(C[n+]2csc(CCOP(=O)(O)O)c2C)c(N)n1 [THIAMINE MONOPHOSPHATE],LC retention time [8]: 1.78 min; LC retention time [9]: 0.89 min
